{"source": "patent US9150627B2", "about": "“Anti tumoral immunogenic peptides and vaccine thereof” (priority 2004, dated 2015)", "test_system": "DHD-K12 cells", "conditions": "rat, in vivo", "excerpt": "Autologous colon carcinoma DHD-K12 line cells were inoculated intra-splenically in BDIX rats. These cells metastatize at polmonar and hepatic level and naturally express the epitope common also to human colon rectal carcinoma ([…] (SEQ ID NO:4)). To evaluate the relevance of […] (SEQ ID NO:4) antigen in antigen specific cytotoxic response BDIX rats were immunized with DHD-K12.\nPBMC cytotoxic activity (cytotoxicity test based on the release of ^51Cr or LDH) of BDIX rats against DHD-K12 cells was evaluated after immunization and tumor inoculum.", "note": "Where no end group is shown, it is not given here.", "data": [{"sequence": "RTQKEASIC", "values": [{"measurement": "PBMC cytotoxic activity after tumor inoculum, pre-immunized vs non immunized rats", "value": "significantly increased"}, {"measurement": "PBMC cytotoxic activity against DHD-K12 after immunization", "value": "high cytotoxic activity"}]}]}
